Reference: patent EP0209274A2, “Furanone derivatives” (ELI LILLY AND COMPANY, priority 1985, dated 1987)

The compounds below were run against Pancreatic phospholipase A2 (Homo sapiens, UniProt P04054) (assay: Phospholipase A2 (PLA2) Assay). Settings: 30 µg/ml test compound; inhibition of 14C-free fatty acid formation.
Format: biochemical
Description: The assay buffer contained 10 mM Tris-HCl buffer, pH 8.0, 100 mM NaCl, 1 mM CaCl2 and 1 mg/ml of bovine serum albumin. A toluene-ethanol (1:1 v/v) solution of phosphatidiylcholine, L-a-dipalmitoyl-(2-palmitoyl-1-^14C) obtained from New England Nuclear was evaporated to dryness in a flask under nitrogen and the assay buffer was added to give a substrate concentration of 9.0 x 10^-5M (specific activity = 27.7 mCi/mmol). The mixture was sonicated for 5 minutes in a Bransonic 220 Sonication Bath. Pancreatic phospholipase A2 (specific activity = 600 units/mg) was diluted with the assay buffer to give an enzyme concentration of 0.1 mg/ml. […] To initiate the enzyme reaction, 0.1 ml of the mixture containing the substrate was added to the enzyme solution and the reaction mixture was further incubated for 30 minutes at 37°C. The reaction was then terminated by the addition of 20 µl of 1M citric acid.
Fifty µl of the mixture was added to 10 ml of scintillation fluid [5.88 g of 2,5-diphenyl-oxazole and 118 mg of 1,4-bis(5-phenyloxazol-2-yl)benzene] dissolved in 650 ml of toluene and 350 ml of Triton X-100) and the radioactivity was determined in an Isocap/300 liquid scintillation counter (Searle Analytic Inc., Southfield, Michigan). Another 50 µl of the mixture was applied directly onto the spotting area of a silica gel plate (LK6D, Whatman, Clifton, N.J.) and subjected to thin layer chromatography in a solvent system of ethyl acetate:acetic acid:2,2,4-trimethylpentane:H20 (90:20:50:100, v/v/v). The silica gel on the plate was scraped in 1 cm sections, suspended in 5 ml of the Triton X-100 based scintillation fluid and the radioactivity was determined. Phosphatidylcholine remained at the origin while fatty acids migrated to a few centimeters (2-3 cm) below the solvent front. The percent of ^14C-free fatty acid formed with the test compound added was calculated as compared to the amount formed in control experiments where no test compound was added. […]

Pancreatic phospholipase A2, sequence (P04054 23-148): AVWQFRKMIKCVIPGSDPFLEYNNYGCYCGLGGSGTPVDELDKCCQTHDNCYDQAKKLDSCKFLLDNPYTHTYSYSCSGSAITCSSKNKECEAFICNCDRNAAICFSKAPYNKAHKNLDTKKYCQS

| Structure (SMILES) | inhibition at 30 µg/mL [%] |
| --- | --- |
| C=CCCCCCCCC1=CC(=O)OC1O (stereo not drawn) [Example 7, 5-Hydroxy-4-(8-nonenyl)-2(5H)-furanone] | 0 |
| CCCCCC/C=C\CCCCCCCCC1=CC(=O)OC1O (stereo not drawn) [Example 8, (Z)-4-(9-hexadecenyl)-5-hydroxy-2(5H)-furanone] | 36 |

More lines, now with the values ahead:

| inhibition at 30 µg/mL [%] | Structure (SMILES) |
| --- | --- |
| 0 | CCCC/C=C\CCCCCCCCCCC1=CC(=O)OC1O (stereo not drawn) [Example 21, (Z)-4-(11-hexadecenyl)-5-hydroxy-2(5H)-furanone] |
| 26 | CCCCCCCC/C=C\CCCCCCCCCCC1=CC(=O)OC1O (stereo not drawn) [Example 10, (Z)-4-(11-eicosenyl)-5-hydroxy-2(5H)-furanone] |

These compounds were tested against T1, fatty acid cyclooxygenase (Homo sapiens, UniProt P23219) (assay: Fatty Acid Cyclooxygenase (FCO) Assay). Settings: 30 µg/ml test compound; inhibition of formation of PGE2; enzyme from human platelets.
T1 construct: Microsomes were prepared from 185 bags of human platelets; from tissue; host or cells: human platelets (solubilized microsomes, then electrofocusing and Sephadex G-200)
T1 sequence (P23219 24-599): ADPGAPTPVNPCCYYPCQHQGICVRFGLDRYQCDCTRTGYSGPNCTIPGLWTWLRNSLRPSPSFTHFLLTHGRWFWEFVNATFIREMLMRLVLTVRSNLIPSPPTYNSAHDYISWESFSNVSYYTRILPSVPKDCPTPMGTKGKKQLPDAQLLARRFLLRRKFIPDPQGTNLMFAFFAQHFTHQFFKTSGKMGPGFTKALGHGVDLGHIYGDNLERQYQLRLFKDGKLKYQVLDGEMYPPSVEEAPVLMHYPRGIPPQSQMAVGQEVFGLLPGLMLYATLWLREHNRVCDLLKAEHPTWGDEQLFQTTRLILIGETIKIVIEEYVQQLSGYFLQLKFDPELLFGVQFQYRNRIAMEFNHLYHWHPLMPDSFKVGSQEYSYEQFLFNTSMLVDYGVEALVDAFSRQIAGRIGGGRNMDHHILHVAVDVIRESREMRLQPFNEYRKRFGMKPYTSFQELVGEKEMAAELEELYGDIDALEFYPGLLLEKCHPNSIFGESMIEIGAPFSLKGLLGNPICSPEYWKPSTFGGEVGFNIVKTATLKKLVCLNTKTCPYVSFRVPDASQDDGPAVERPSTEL
Format: biochemical
Description: Microsomes were prepared from 185 bags of human platelets (each bag containing the platelets from one pint of blood prepared using differential centrifugation procedures). The platelets from approximately 60 bags were prepared at one time. Platelet-rich plasma (500 g) was centrifuged at 10,000 x g for 20 minutes, and the platelet pellet was suspended in 100 ml of 0.1M. potassium phosphate buffer, pH 8.0, with a Teflon glass homogenizer and sonicated for 5.0 minutes with a Bronson Sonifier (Model 350) in a rosette flask cooled in ice water. Disrupted platelets were centrifuged 15 minutes at 10,000 x g. The supernatant was centrifuged at 100,000 x g for 90 minutes and the microsomal pellets were homogenized in 25 ml of 20% sucrose containing 1.0% Triton X-100 detergent. After 30 minutes at 4°C, the solubilized microsomes were centrifuged at 100,000 x g for 60 minutes. The yellow supernatant was removed and stored at -70°C.
The solubilized fatty acid cyclooxygenase was applied to a 440 ml electrofocusing column (LKB-8012) containing 1% phisolytes (Brinkman Instruments, Westburgh, NY), pH 2-11, with the cathode at the top of the column. The enzyme was layered onto the column at the appropriate time so that its sucrose concentration was equal to that of the column gradient. This was accomplished by checking the gradient concentration periodically with a sucrose hand refractometer. Electrofocusing was carried out for 16 hours with an initial voltage of 400 V and a final voltage of 900-1,000 volts. Fractions were collected (20 ml) and assayed for PGE2 formation. Active peak fractions were pooled and concentrated by ultrafiltration (XM 100A) to a volume of 3-5 ml.
Active fractions from electrofocusing were applied to a G-200 Sephadex column (2 cm x 46 cm) and eluted with 10 mM potassium phosphate buffer, pH 7.0, in 5 ml fractions. After assay, active fractions were pooled and concentrated to 1.0 ml by ultrafiltration (XM 100A), and kept frozen at -70°C.
Enzyme activity was determined by assaying for PGE2 formation by preincubating the enzyme with 10 mmol/l imidazole phosphate buffer, pH 8.0, 2 mmol/l epinephrine, 2 mmol/1 methemoglobin, and the test compound (30 pg/ml) in a total volume of 0.2 ml for one minute at 37°C. After preincubation, 5 mmol/1 ^14C-arachidonic acid were added and the mixture was incubated an additional 0.5 minutes at 37°C. The enzyme reaction was stopped by the addition of 20 µl of indomethacin (2 mg/ml) in alcohol.
The reaction mixture was spotted (50 pl) on a silica gel (LQ6D) plate and subjected to TLC. The solvent system consisted of chloroform-methanol-glacial acetic acid (90:5:5, v/v/v) and the relative mobilities were PGF2a = 0.235, and PGE2 = 0.47. The silica gel on the plate was scraped in 1 cm sections, suspended in 5 ml of the scintillation fluid [5.88 g of 2,5-diphenyl-oxazole and 118 mg of 1,4-bis(5-phenyloxazol-2-yl)benzene] dissolved in 650 ml of toluene and 350 ml of Triton X-100) and the radioactivity was determined in an Isocap/300 liquid scintillation counter (Searle Analytic, Inc., Southfield, MI). Another 50 µl of the mixture was added to 10 ml of the Triton X-100 based scintillation fluid, and the radioactivity was determined so that the amount of radioactivity recovery from the TLC plate could be ascertained. PGE2 formation for each test compound was determined as a percent of control experiments wherein no test compound was added. Data is expressed in Table I as the percent inhibition of formation of PGE2 at a test compound concentration of 30 pg/ml.

| Structure (SMILES) | inhibition at 30 µg/mL [%] |
| --- | --- |
| C=CCCCCCCCC1=CC(=O)OC1O (stereo not drawn) [Example 7, 5-Hydroxy-4-(8-nonenyl)-2(5H)-furanone] | 23 |
| CCCCCCCC/C=C\CCCCCCCCCCC1=CC(=O)OC1O (stereo not drawn) [Example 10, (Z)-4-(11-eicosenyl)-5-hydroxy-2(5H)-furanone] | 25 |
| O=C1C=C(CCCCOc2ccccc2Cc2ccccc2)C(O)O1 (stereo not drawn) [Example 17, 5-Hydroxy-4-[4-(2-benzylphenoxy)butyl]-2(5H)-furanone] | 12 |
| CCCCCC/C=C\CCCCCCCCC1=CC(=O)OC1O (stereo not drawn) [Example 8, (Z)-4-(9-hexadecenyl)-5-hydroxy-2(5H)-furanone] | 21 |
| O=C1C=C(CCCCCOc2ccc3ccccc3c2)C(O)O1 (stereo not drawn) [Example 16, 5-Hydroxy-4-[5-(2-naphthalenyloxy)pentyl]-2(5H)-furanone] | 27 |

The compounds below were run against T2, 5-Lipoxygenase (Cavia porcellus, UniProt A0A286X958) (assay: 5-Lipoxygenase (5-LPO) Assay). Settings: inhibition of 5-HETE formation; supernatant of guinea pig PMNL sonicate; read-out: 5-LPO IC50 (µg/ml) (converted).
T2 construct: The PMNL suspension was disrupted by five ½-second pulse sonication; from tissue; host or cells: guinea pig peritoneal polymorphonuclear leukocytes (30,000 x g supernatant of the sonicate)
T2 sequence (A0A286X958 1-674): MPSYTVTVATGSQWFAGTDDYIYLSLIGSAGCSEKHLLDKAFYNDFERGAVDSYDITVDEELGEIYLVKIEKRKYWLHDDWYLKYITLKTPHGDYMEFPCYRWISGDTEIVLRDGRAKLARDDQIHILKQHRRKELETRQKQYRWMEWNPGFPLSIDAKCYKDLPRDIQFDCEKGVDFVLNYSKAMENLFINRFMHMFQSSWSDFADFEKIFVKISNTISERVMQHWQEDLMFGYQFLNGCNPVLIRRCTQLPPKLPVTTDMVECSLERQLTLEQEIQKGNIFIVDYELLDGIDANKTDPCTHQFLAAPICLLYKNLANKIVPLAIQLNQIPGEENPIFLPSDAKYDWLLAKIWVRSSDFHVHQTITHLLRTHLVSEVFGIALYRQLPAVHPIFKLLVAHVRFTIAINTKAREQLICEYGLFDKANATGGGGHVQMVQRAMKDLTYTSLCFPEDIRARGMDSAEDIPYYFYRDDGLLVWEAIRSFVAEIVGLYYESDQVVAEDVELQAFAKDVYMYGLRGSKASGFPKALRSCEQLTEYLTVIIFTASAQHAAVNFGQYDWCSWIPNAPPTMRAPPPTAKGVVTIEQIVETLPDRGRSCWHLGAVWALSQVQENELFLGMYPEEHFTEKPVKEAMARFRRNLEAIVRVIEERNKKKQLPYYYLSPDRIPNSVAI
Format: biochemical, guinea pigs
Description: Ten milliliters of a 2% casein solution were injected intraperitoneally to guinea pigs weighing 250-300 gm. After 16-18 hours, the guinea pigs were killed by suffocation in a carbon dioxide chamber. The peritoneal cavity was infused with 70 ml of saline and 40-50 ml of the fluid were recovered from the cavity. After centrifugation, cell pellets were washed twice in Hank's balanced salt solution (HBSS) without calcium ion.
The cells were then suspended in 5 ml of sodium phosphate buffer, pH 7.1 containing 1 mM EDTA, and 0.1% gelatin. About 20-30 x 10^7 cells were obtained from one guinea pig.
The PMNL suspension was disrupted by five ½-second pulse sonication at the setting of 3 in a Branson Sonifier, Model 350, equipped with a microtip. The sonicates were combined and centrifuged at 30,000 x g for 10 minutes. The supernatant was kept frozen at -70°C until use.
. Enzyme activity was determined by assaying for 5-HETE formatiun by first incubating 0.2 ml of the supernatant obtained from the PMNL sonicate with the test compound, 1 mM CaCl2, 2 mM ATP, and 1 mM GSH for 5 minutes at 37°C. The mixture is treated with 5 pM ^14C-arachidonic acid and incubated at 37°C an additional 10 minutes. The enzyme reaction was then stopped by the addition of 10 µl of 1M citric acid and 10 µl of an alcohol solution containing 20 mg/ml each of indomethacin and butylated hydroxyanisole (BHA). The reaction mixture was spotted (50 µl) on a silica gel plate (Baker TLC plate S1250-PA-19C) and subjected to TLC in a solvent system of ethyl acetate/2,2,4-tri- methylpentane/glacial acetic acid/H20 (90:50:20:100).
The radioactivity of the arachidonic acid and its metabolites (5-HETE and LTB4) was visualized from a developed x-ray film which had been exposed to the TLC plate 1-2 days. The amount of 5-HETE formed was quanti- tated by scraping the silica gel area corresponding to the spot on the x-ray film, and the radioactivity determined in a Isocap/300 liquid scintillation counter (Searle Analytic, Inc.).
The percent inhibition of the formation of 5-HETE was determined for each concentration of test compound tested as compared to a control experiment wherein no test compound was added. The concentration and percent inhibition values were plotted on semi log paper and the concentration in which formation of 5-HETE is inhibited by 50% (ICso) was determined by interpolation.

| Structure (SMILES) | IC50 [µM] |
| --- | --- |
| CCCC/C=C\CCCCCCCCCCC1=CC(=O)OC1O (stereo not drawn) [Example 21, (Z)-4-(11-hexadecenyl)-5-hydroxy-2(5H)-furanone] | 93 |
| O=C1C=C(CCCCOc2ccccc2Cc2ccccc2)C(O)O1 (stereo not drawn) [Example 17, 5-Hydroxy-4-[4-(2-benzylphenoxy)butyl]-2(5H)-furanone] | 8.87 |
| O=C1C=C(CCCCCOc2ccc3ccccc3c2)C(O)O1 (stereo not drawn) [Example 16, 5-Hydroxy-4-[5-(2-naphthalenyloxy)pentyl]-2(5H)-furanone] | 9.6 |
